Data on one compound can be found in patent US4581346A, “Macrolide derivatives” (Eli Lilly and Company, priority 1984, dated 1986).

Converted amounts (≈) assume the structure as drawn.

What all share (assay): Standard agar-dilution assay, MIC
What all share (format): cell-based

The subject of assay [1] is Staphylococcus aureus S13E. As for the experimental part: (§1) The minimal inhibitory concentrations (MIC's) at which the tylosin derivative (formula 1 compound wherein [drawing 11] and R^3 =mycarosyloxy) inhibits certain bacteria are given in Table II. The MIC's in Table II were determined by standard agar-dilution assays.
Assay [2] deals with Staphylococcus aureus V41. The note with it: Staphylococcus aureus V41, penicillin-resistant strain. On the procedure: as §1
The test system of assay [3] is Staphylococcus epidermidis EPI2. On the procedure:
as §1

In assay [4] the test system is Haemophilus influenzae C.L. The note with it: ampicillin-sensitive strain. As for the experimental part:
as §1

Another assay relates to Escherichia coli EC14. As for the experimental part:
as §1

Assay [5] relates to Streptococcus pneumoniae Park I. As for the experimental part: as §1
For assay [6], the system named is Streptococcus Group D X66. As for the experimental part: as §1
A further assay deals with Escherichia coli TEM. On the procedure:
as §1

Assay [7] has as its system Staphylococcus epidermidis EPI1. As for the experimental part: as §1
Assay [8] deals with Streptococcus Group D 9960. The note with it: GROUPD9960. On the procedure: as §1
Assay [9] relates to Staphylococcus aureus X400. As for the experimental part: as §1
Assay [10] concerns Haemophilus influenzae 76. The conditions noted are these: Haemophilus influenzae 76, ampicillin-resistant strain. As for the experimental part: as §1
Assay [11] relates to Streptococcus pyogenes C203. As for the experimental part:
as §1

Another assay deals with Escherichia coli N10. As for the experimental part: as §1
The subject of assay [12] is Staphylococcus aureus X1.1. On the procedure:
as §1

Consider `CCC1OC(=O)CC(O)C(C)C(OC2OC(C)C(OC3CC(C)(O)C(O)C(C)O3)C(N(C)C)C2O)C2CC(O)C(C)(C2)C(=O)C=CC(C)=CC1COC1OC(C)C(O)C(OC)C1OC` (stereo not drawn) [8,20-Cyclo-Tylosin, 8,20-Cyclo-tylosin], for which the MIC in assay [1] was 2 µg/mL (≈ 2.18 µM); in [2], 2 µg/mL (≈ 2.18 µM); in assay [3], 0.5 µg/mL (≈ 0.546 µM); in assay [4] it was 128 µg/mL (≈ 140 µM); with Escherichia coli EC14, > 128 µg/mL; in [5] it was 2 µg/mL (≈ 2.18 µM). The MIC is 32 µg/mL (≈ 34.9 µM) in assay [6]; > 128 µg/mL against Escherichia coli TEM; 1 µg/mL (≈ 1.09 µM) in assay [7]; 32 µg/mL (≈ 34.9 µM) in assay [8]; 2 µg/mL (≈ 2.18 µM) in [9]; 128 µg/mL (≈ 140 µM) in assay [10]. Moreover, the results for the MIC (in assay [11]; against Escherichia coli N10; in [12]) were 1 µg/mL (≈ 1.09 µM), > 128 µg/mL and 1 µg/mL (≈ 1.09 µM), respectively.
